pEC50: −log10 of the molar value.
How the values were obtained:
[1] = tested on: Rat white adipocytes; assay: Lipolysis stimulated in rat white adipocytes (glycerol release); type: cell-based; conditions: Adipocyte, 0.5 h, 30 minutes
Procedure: Rat white adipocytes were prepared by collagenase digestion as described by Rodbell (1964) with the modification of Honnor et al. (1985), in that adenosine (200 nM) was included in the preparation to inhibit basal lipolysis.
Lipolysis stimulated by β-agonists was measured over 30 minutes in medium where the adenosine concentration was controlled; the medium included (-)-N^6 -(2-phenylisopropyl)adenosine (100 nM)+deaminase as decribed by Honnor et al. (1985). The incubation was stopped by addition of trichloracetic acid (0.2 ml of 10% w/v) to 1 ml of cells. Glycerol was measured by the fluorimetric method of Boobis and Maugham (1983).

[2] = target: T1, Rat β2 adrenoceptor (Rattus norvegicus, UniProt P10608); assay: β2-Adrenoceptor agonism, inhibition of contraction of K+-pre-contracted uterine strips; type: cell-based; conditions: pre-contracted with 40 mM K+
T1 construct: Rat uterine horns were removed and bisected longitudinally; from tissue; host or cells: rat uterine horns (uterine strips)
Procedure: (§1) Agonist Activity at Rat β1 and β2 Adrenoceptors In Vitro
Rat uterine horns were removed and bisected longitudinally. Each tissue was tied to a glass tissue holder and placed in Krebs-Henseleit solution in a 30 ml organ bath as before. Tissues were placed under a resting tension of 1 g and allowed to equilibrate. Each uterine strip was pre-contracted by the addition of 40 mM K^+ to the bath to produced a steady tonic contraction. β-agonists were then added to the bath in a cumulative manner and results were expressed as percentage inhibition of contraction.
(§2) Agonist EC50 (atria) and IC50 (uteri) were calculated as the concentration of agonist producing 50% of their maximum increase in atrial rate or uterine relaxation. Relative intrinsic activity expressed as the maximal responses to test agonists relative to isoprenaline (=1.0) in both atria and uteri.

[3] = target: T2, Rat β1 adrenoceptor (Rattus norvegicus, UniProt P18090); assay: β1-Adrenoceptor agonism, increase in rate of spontaneously beating right atria; type: cell-based, Rat (female Sprague-Dawley); conditions: in vitro, 37° C., Krebs-Henseleit solution
T2 construct: Spontaneously beating right atria were removed; from tissue; host or cells: right atria of female Sprague-Dawley rats
Procedure: as §1
Female Sprague-Dawley rats (150-250 g) were killed by a blow to the head and exsanguinated. Spontaneously beating right atria were removed by the method of Broadley and Lumley (1977) and mounted on a glass tissue holder. Each tissue was placed in 30 ml organ baths at 37° C. containing Kreb's-Henseleit solution. Each atrium was attached to an isometric transducer by cotton and placed under an initial resting tension of 1 g. Rate recordings from the spontaneous beating atria were obtained from the tension signal using a Lectromed Type 4522 ratemeter. All traces were recorded on a Lectromed M4 chart recorder. β-adrenoceptor agonists were then added to the Krebs medium in a cumulative fashion and the results expressed as a percentage increase in atrial rate.
as §2

T2 sequence (P18090 whole entry): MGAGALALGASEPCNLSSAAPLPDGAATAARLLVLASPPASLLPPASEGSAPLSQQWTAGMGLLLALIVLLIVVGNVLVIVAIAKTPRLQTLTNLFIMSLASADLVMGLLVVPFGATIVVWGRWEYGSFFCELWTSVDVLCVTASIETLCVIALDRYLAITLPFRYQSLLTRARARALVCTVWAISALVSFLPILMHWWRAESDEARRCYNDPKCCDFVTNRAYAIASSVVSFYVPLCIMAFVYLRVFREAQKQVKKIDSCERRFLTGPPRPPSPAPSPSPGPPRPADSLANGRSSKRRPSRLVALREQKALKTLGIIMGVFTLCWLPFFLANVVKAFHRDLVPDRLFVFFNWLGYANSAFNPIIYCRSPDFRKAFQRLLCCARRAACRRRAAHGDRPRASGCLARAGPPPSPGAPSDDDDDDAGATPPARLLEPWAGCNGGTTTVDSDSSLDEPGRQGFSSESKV
T1 sequence (P10608 whole entry): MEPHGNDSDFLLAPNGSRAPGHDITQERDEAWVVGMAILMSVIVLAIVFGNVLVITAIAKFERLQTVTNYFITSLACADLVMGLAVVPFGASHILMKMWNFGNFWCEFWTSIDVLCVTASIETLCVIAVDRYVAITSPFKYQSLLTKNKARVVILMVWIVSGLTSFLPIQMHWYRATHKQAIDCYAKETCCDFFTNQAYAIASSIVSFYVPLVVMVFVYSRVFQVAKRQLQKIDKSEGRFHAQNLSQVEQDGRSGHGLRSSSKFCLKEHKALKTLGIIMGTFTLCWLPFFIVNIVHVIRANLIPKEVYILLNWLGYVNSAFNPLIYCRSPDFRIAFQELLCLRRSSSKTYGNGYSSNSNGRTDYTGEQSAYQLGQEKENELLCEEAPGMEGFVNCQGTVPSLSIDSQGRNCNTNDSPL

Work on CCOP(=O)(O)COc1ccc(C[C@@H](C)NC[C@H](O)c2cccc(Cl)c2)cc1 (relative stereo) [Example 2, (RR,SS)-Sodium Ethyl 4-[2-[2-(3-chlorophenyl)-2-hydroxyethylamino]propyl]phenoxymethylphosphonate] yielded a pEC50 [1] of 7.11, an Emax ([1]; read-out: Intrinsic Activity) of 95% and a Ki [2] of 10000 nM. It also gave a Ki [3] of 37600 nM.

Source: patent US5519006A, “Phosphonated arylethanolamine compounds with anti-hyperglycemic and/or anti-obesity activity” (SmithKline Beecham plc, priority 1992, dated 1996)
